Biological target: T1, catechol-O-methyltransferase (COMT) (Homo sapiens, UniProt P21964)
T1 construct: M51A variant) was expressed in HEK 293F cells
T1 sequence (P21964 52-271 limits assumed): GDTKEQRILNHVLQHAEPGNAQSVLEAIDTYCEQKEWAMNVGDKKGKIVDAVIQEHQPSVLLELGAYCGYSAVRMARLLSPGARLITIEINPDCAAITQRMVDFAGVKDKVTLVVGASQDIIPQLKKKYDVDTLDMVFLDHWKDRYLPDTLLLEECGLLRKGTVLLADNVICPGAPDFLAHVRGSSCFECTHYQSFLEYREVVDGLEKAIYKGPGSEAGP
Assay: COMT inhibition assay (HTRF, production of S-adenosyl homocysteine)
Type: biochemical
Settings: recombinant human COMT, HTRF SAH production; MB-COMT or S-COMT not stated for Table 1
Description: The ability of compounds to inhibit the activity of catechol-O-methyltransferase (COMT) was determined by a homogenous time-resolved fluorescent (HTRF) assay (Lina et al, 2012; kit from CisBio, Codolet, France). This assay measures the production of S-adenosyl homocysteine (SAH) from the methyl donor S-adenosyl methionine. Recombinant human membrane bound COMT (MB-COMT; M51A variant) was expressed in HEK 293F cells using 293Fectin (Life Technologies, Gent, Belgium) and membranes prepared. The membranes were re-suspended in buffer (20 mM Tris/HCl pH 7; 10 mM glycerol; 2 mM MgCl2; 10 mM NaCl), aliquoted and stored at −80° C. Recombinant human soluble COMT(S-COMT), Va1158 variant and a hexa-His tag on the N-terminus, was purified using Ni-NTA chromatography, the His tag removed and stored in buffer as above.
For the human MB-COMT assay, membranes (62 ng/well) were incubated with SAM (20 μM final, CisBio) and dopamine (1.5 μM final; Sigma H8502, Diegem, Belgium) in the presence or absence of varying concentrations (typically 10 concentrations ranging from 10 μM to 0.1 nM) of compound for 40 min at 37° C. in 384-well microtitre plates (10 μl per well final volume). The reaction was terminated by the addition of acylation buffer and the amount of SAH produced determined according to manufacturer's instructions. Specific inhibition as that inhibited by a high concentration of tolcapone (10 μM; synthesised at UCB) and all experiments were validated using a control curve to tolcapone.
The human S-COMT assay was performed as above except that 0.15 ng enzyme/well was incubated with SAM (20 μM final) and dopamine (100 μM final) for 15 min at 37° C. and SAH production determined.
HTRF readings were performed using a Perkin Elmer Envision and results expressed as concentration of SAH produced using a standard curve. Results were analysed using non-linear regression to the 4-parameter logistic equation and pIC50 (−log 10 concentration of drug which inhibits enzyme activity/SAH production by 50%) determined.

| SMILES | Activity range (pIC50, COMT inhibition) |
| --- | --- |
| CCN(Cc1ccncc1)S(=O)(=O)c1ccc(O)c2ncccc12 [Example 66, N-ethyl-8-hydroxy-N-(4-pyridylmethyl)quinoline-5-sulfonamide] | ++ (a pIC50 of from about great than 6 to 7) |
| C[C@H](c1ccccc1)N(C)S(=O)(=O)c1cc(F)c(O)c2ncccc12 [Example 123, 7-fluoro-8-hydroxy-N-methyl-N-[(1R)-1-phenylethyl]quinoline-5-sulfonamide] | +++ (a pIC50 of above about 7) |
| O=S(=O)(c1ccc(O)c2ncccc12)N1CCCC1c1ccccn1 (stereo not drawn) [Example 80, 5-[2-(2-pyridyl)pyrrolidin-1-yl]sulfonylquinolin-8-ol] | ++ (a pIC50 of from about great than 6 to 7) |
| CN(Cc1ccc(C(F)(F)F)cc1)S(=O)(=O)c1ccc(O)c2ncccc12 [Example 65, N-[(4-(trifluoromethyl)phenyl)methyl]-8-hydroxy-N-methyl-quinoline-5-sulfonamide] | +++ (a pIC50 of above about 7) |
| CC1CNCCN1S(=O)(=O)c1ccc(O)c2ncccc12 (stereo not drawn) [Example 106, 5-(2-methylpiperazin-1-yl)sulfonylquinolin-8-ol] | + (a pIC50 of from about 4.5 to 6) |
| Cc1ccc(N(C)S(=O)(=O)c2ccc(O)c3ncccc23)cc1 [Example 46, 8-hydroxy-N-(4-methylphenyl)-N-methylquinoline-5-sulfonamide] | ++ (a pIC50 of from about great than 6 to 7) |
| C[C@H](c1ccccc1)N(C)S(=O)(=O)c1cc(Br)c(O)c2ncccc12 [Example 120, 7-bromo-8-hydroxy-N-methyl-N-[(1R)-1-phenylethyl]quinoline-5-sulfonamide] | + (a pIC50 of from about 4.5 to 6) |
| C[C@H](c1ccccc1)N(C)S(=O)(=O)c1ccc(O)c2ncccc12 [Example 50, 8-hydroxy-N-methyl-N-[(1R)-1-phenylethyl]quinoline-5-sulfonamide] | +++ (a pIC50 of above about 7) |
| Cc1cnccc1S(=O)(=O)c1ccc(O)c2ncccc12 [Example 27, 5-[(3-methyl-4-pyridyl)sulfonyl]quinolin-8-ol] | +++ (a pIC50 of above about 7) |
| Cc1ccc(S(=O)(=O)c2ccc(O)c3ncccc23)cc1C [Example 3, 5-(3,4-dimethylphenyl)sulfonylquinolin-8-ol] | +++ (a pIC50 of above about 7) |
| O=S(=O)(c1ccc(O)c2ncccc12)N1CC(Oc2ccc(OC(F)(F)F)cc2)C1 [Example 99, 5-[3-[4-(trifluoromethoxy)phenoxy]azetidin-1-yl]sulfonylquinolin-8-ol] | ++ (a pIC50 of from about great than 6 to 7) |
| O=S(=O)(c1ccc(O)c2ncccc12)N1CCCC1 [Example 59, 5-pyrrolidin-1-ylsulfonylquinolin-8-ol] | +++ (a pIC50 of above about 7) |
| O=C(c1ccccc1)C1CCN(S(=O)(=O)c2ccc(O)c3ncccc23)CC1 [Example 85, [1-[(8-hydroxy-5-quinolyl)sulfonyl]-4-piperidyl]-phenyl-methanone] | +++ (a pIC50 of above about 7) |
| CN(Cc1cccc(Cl)c1)S(=O)(=O)c1ccc(O)c2ncccc12 [Example 53, N-[(3-chlorophenyl)methyl]-8-hydroxy-N-methyl-quinoline-5-sulfonamide] | +++ (a pIC50 of above about 7) |
| O=S(=O)(c1ccc(O)c2ncccc12)N1CCN(c2ccc(F)cc2)CC1 [Example 96, 5-[4-(4-fluorophenyl)piperazin-1-yl]sulfonylquinolin-8-ol] | ++ (a pIC50 of from about great than 6 to 7) |
| O=S(=O)(c1ccc(O)c2ncccc12)N1CCOCC1 [Example 64, 5-(4-morpholin-1-yl)sulfonylquinolin-8-ol] | ++ (a pIC50 of from about great than 6 to 7) |
| CC(C)(C)c1ccc(S(=O)(=O)c2ccc(O)c3ncccc23)cc1 [Example 5, 5-(4-tert-butylphenyl)sulfonylquinolin-8-ol] | +++ (a pIC50 of above about 7) |
| O=S(=O)(c1ccc(O)c2ncccc12)N1CCCC1c1ccccc1 (stereo not drawn) [Example 58, 5-(2-phenylpyrrolidin-1-yl)sulfonylquinolin-8-ol] | +++ (a pIC50 of above about 7) |

| SMILES | Activity range (pIC50, COMT inhibition) |
| --- | --- |
| COC(=O)N1CCN(S(=O)(=O)c2ccc(O)c3ncccc23)CC1 [Example 88, methyl 4-[(8-hydroxy-5-quinolyl)sulfonyl]piperazine-1-carboxylate] | +++ (a pIC50 of above about 7) |
| O=S(=O)(c1cccc(-c2cccc3[nH]ncc23)c1)c1ccc(O)c2ncccc12 [Example 26, 5-[3-(1H-indazol-4-yl)phenyl]sulfonylquinolin-8-ol] | +++ (a pIC50 of above about 7) |
| O=S(=O)(c1cccnc1)c1ccc(O)c2ncccc12 [Example 19, 5-(3-pyridylsulfonyl)quinolin-8-ol] | ++ (a pIC50 of from about great than 6 to 7) |
| O=S(=O)(c1ccc(Cl)cc1)c1ccc(O)c2ncccc12 [Example 9, 5-(4-chlorophenyl)sulfonylquinolin-8-ol] | +++ (a pIC50 of above about 7) |
| CN1CCN(S(=O)(=O)c2ccc(O)c3ncccc23)CC1 [Example 60, 5-(4-methylpiperazin-1-yl)sulfonylquinolin-8-ol] | ++ (a pIC50 of from about great than 6 to 7) |
| C[C@@H]1CCCN1S(=O)(=O)c1cc(Cl)c(O)c2ncccc12 [Example 119, 7-chloro-5-[(2R)-2-methylpyrrolidin-1-yl]sulfonyl-quinolin-8-ol] | ++ (a pIC50 of from about great than 6 to 7) |
| O=S(=O)(c1ccc(O)c2ncccc12)N1CCCC1c1ccc(F)cc1 (stereo not drawn) [Example 74, 5-[2-(4-fluorophenyl)pyrrolidin-1-yl]sulfonylquinolin-8-ol] | +++ (a pIC50 of above about 7) |
| O=S(=O)(c1cccc(C(F)(F)F)c1)c1ccc(O)c2ncccc12 [Example 13, 5-[3-(trifluoromethyl)phenyl]sulfonylquinolin-8-ol] | +++ (a pIC50 of above about 7) |
| CN(CCc1ccccc1)S(=O)(=O)c1ccc(O)c2ncccc12 [Example 48, 8-hydroxy-N-methyl-N-phenethyl-quinoline-5-sulfonamide] | +++ (a pIC50 of above about 7) |
| O=S(=O)(c1ccc(O)c2ncccc12)N1CCCCC1c1ccccc1 (stereo not drawn) [Example 61, 5-[(2-phenyl-1-piperidyl)sulfonyl]quinolin-8-ol] | ++ (a pIC50 of from about great than 6 to 7) |
| O=S(=O)(c1ccc(O)c2ncccc12)N1CCN(C(c2ccc(F)cc2)c2ccc(F)cc2)CC1 [Example 95, 5-[4-[bis(4-fluorophenyl)methyl]piperazin-1-yl]sulfonylquinolin-8-ol] | + (a pIC50 of from about 4.5 to 6) |
| O=S(=O)(c1ccc(O)c2ncccc12)C1CCCCC1 [Example 30, 5-cyclohexylsulfonylquinolin-8-ol] | +++ (a pIC50 of above about 7) |
| COc1ccc(C2CCCN2S(=O)(=O)c2ccc(O)c3ncccc23)cc1 (stereo not drawn) [Example 77, 5-[2-(4-methoxyphenyl)pyrrolidin-1-yl]sulfonylquinolin-8-ol] | +++ (a pIC50 of above about 7) |
| O=S(=O)(c1cc(F)c(O)c2ncccc12)N1CCCC1 [Example 113, 7-fluoro-5-pyrrolidin-1-ylsulfonyl-quinolin-8-ol] | +++ (a pIC50 of above about 7) |
| O=S(=O)(c1ccc(O)c2ncccc12)N1CC2CCC(CC2)C1 [Example 91, 5-(3-azabicyclo[3.2.2]nonan-3-ylsulfonyl)quinolin-8-ol] | +++ (a pIC50 of above about 7) |
| O=S(=O)(c1ccc(O)c2ncccc12)N1CCCC1C1CCCCC1 (stereo not drawn) [Example 76, 5-(2-cyclohexylpyrrolidin-1-yl)sulfonylquinolin-8-ol] | +++ (a pIC50 of above about 7) |
| O=S(=O)(c1ccc(O)c2ncccc12)N1CCCCC1 [Example 63, 5-(piperidin-1-yl)sulfonylquinolin-8-ol] | +++ (a pIC50 of above about 7) |
| O=S(=O)(c1cccc(-c2cccc3ncccc23)c1)c1ccc(O)c2ncccc12 [Example 25, 5-[3-(5-quinolyl)phenyl]sulfonylquinolin-8-ol] | +++ (a pIC50 of above about 7) |

From patent publication US10035799B2, “COMT inhibiting methods and compositions” (Lieber Institute for Brain Development, priority 2015, dated 2018)
